Results published in patent publication US20150366839A1, “Schisantherin A for the treatment of neurodegenerative diseases” (priority 2014, published 2015).

Tested on: Akt
Assay: p-Akt level after 6-OHDA, Western blot
Type: cell-based, Human
Description: After treatment, SH-SY5Y cells were washed three times with PBS and then lysis with RIPA lysis buffer containing 1% PMSF and 1% Protease Inhibitor Cocktail and incubated for 30 min on ice. Cell lysates were centrifuged at 12,500 g for 20 min at 4° C. The supernatant was separated and the amount of protein was determined using the BCA protein assay kit (Thermo Scientific Pierce, USA). Protein samples (30 μg) were separated by SDS-PAGE (10% (w/v)) polyacrylamide gel and then transferred to a polyvinylidene difluoride (PVDF) membrane (Bio-Rad, Hercules, Calif.). Subsequently, the membrane was blocked with 5% (v/v) non-fat milk in PBST (PBS containing 0.1% Tween 20) for 1 h at room temperature. The blots were incubated overnight at 4° C. with primary antibodies. After three washes with PBST, the membranes were incubated with horseradish peroxidase-conjugated secondary antibodies (1:2000) in PBST with 5% non-fat milk for 1 h at room temperature. […] Quantitative assessment of protein bands was done with Gel Doc™ XRS equipped with Quantity One software.
The inventors also investigated the contribution of the Akt pathway in the neuroprotective effects of SchiA. The inventors measured phosphorylation-Akt (p-Akt) levels after pre-treated with 60 μM SchiA for 12 h and then exposed to 400 μM 6-OHDA for another 4 h (FIGS. 6A and 6B). […]

COc1cc2c(c(OC)c1OC)-c1c(cc3c(c1OC)OCO3)C[C@H](C)[C@](C)(O)[C@H]2OC(=O)c1ccccc1 [SchiA, Schisantherin A]
6-OHDA-induced reduction in p-Akt level (60 μM 12 h, then 400 μM 6-OHDA 4 h): prevented the reduction in p-Akt level | p-Akt level, compound alone (60 μM, without 6-OHDA): did not change
